Source: patent US7271148B2, “Inhibition of cellular proteases” (The Board of Regents of The University of Texas System, priority 1999, dated 2007)

Target: T1, μ-calpain (Homo sapiens, UniProt P07384)
T1 construct: purchased Calbiochem (San Diego, Calif.)
T1 sequence (P07384 1-714): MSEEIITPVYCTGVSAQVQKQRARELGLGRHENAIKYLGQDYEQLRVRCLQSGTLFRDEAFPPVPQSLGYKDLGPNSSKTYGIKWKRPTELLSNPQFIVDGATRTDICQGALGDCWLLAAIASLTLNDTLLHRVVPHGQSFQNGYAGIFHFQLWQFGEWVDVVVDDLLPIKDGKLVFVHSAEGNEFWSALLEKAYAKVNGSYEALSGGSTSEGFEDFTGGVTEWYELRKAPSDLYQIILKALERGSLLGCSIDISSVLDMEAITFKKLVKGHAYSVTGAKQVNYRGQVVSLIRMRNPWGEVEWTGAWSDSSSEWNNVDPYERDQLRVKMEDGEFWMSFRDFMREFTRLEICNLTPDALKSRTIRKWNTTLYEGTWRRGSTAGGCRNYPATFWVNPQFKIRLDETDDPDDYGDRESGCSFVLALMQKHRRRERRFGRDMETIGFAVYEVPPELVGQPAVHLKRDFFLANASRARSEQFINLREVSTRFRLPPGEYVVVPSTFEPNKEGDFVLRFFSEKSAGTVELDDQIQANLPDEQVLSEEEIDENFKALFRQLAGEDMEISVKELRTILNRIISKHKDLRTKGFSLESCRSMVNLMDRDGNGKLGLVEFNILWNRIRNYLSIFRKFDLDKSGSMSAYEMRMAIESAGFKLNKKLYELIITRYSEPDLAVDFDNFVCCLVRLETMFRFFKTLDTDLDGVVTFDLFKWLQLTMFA
T1 sequence (P04632 1-268 partner): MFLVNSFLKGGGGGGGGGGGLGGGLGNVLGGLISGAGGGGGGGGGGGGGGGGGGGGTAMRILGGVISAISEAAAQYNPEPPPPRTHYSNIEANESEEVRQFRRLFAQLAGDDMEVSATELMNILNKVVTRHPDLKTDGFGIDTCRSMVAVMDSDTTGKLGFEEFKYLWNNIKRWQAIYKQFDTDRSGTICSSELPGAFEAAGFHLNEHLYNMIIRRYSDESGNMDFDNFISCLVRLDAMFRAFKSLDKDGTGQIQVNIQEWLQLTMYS
Test: Cleavage of purified recombinant p21cip1 by purified μ-calpain
Format: biochemical
Conditions: E64d 100 μM; 0.4 μg p21^cip1, 0.004 units μ-calpain, 30 min at 30° C.; Western blot (FIG. 19)
Procedure: Cleavage of p21^cip1 by calpain. Recombinant p21^cip1 was provided by Harper (37) or Ke (47), and was also prepared using the expression plasmid pET-p21 (37) according to the published methods (30). To evaluate the effect of calpains on p21^cip1, 400 ng of purified recombinant p21^cip1 was incubated with 0.004 units of either pure μ-calpain or m-calpain at 30° C. for 30 minutes in 40 μl of cleavage buffer, containing 25 mM Tris-HCl (pH 7.5), 100 mM NaCl, 3 mM DTT and 5 mM CaCl2 (44). EDTA was added to 10 mM to stop the reaction. An equal volume of 2×SDS gel-loading buffer (18) was mixed with the digestion mixture and the mixture was immediately boiled for 5 min. The digestion products were evaluated by Western blot analysis or SDS-PAGE and coomassie brilliant blue staining.
FIGS. 19 and 20. Cleavage of purified recombinant p21^cip1 by purified ubiquitous calpains. 19. p21^cip1 (0.4 μg) was incubated with μ-calpain (0.004 units) for 30 min at 30° C. in the presence or absence of E64d (100 μM) and the resulting products were analyzed by Western blot analysis, as described in Materials and Methods 20. p21^cip1 (4 μg) or casein (3 μg) was incubated with 0.04 units of μ-calpain or m-calpain for 30 min at 30° C. and the products of the digestion were examined by SDS-PAGE and coomassie brilliant blue staining. […]

proteolysis of p21^cip1 by μ-calpain (in words): inhibited the proteolysis
SMILES: CC(C)C[C@H](NC(=O)[C@H]1O[C@@H]1C(=O)O)C(=O)NCCCCN=C(N)N (relative stereo) [E64d, trans-epoxysuccinyl-L-leucylamido (4-guanidino)-butane]
